# Assay results as given in US7553826B2, “Cytarabine monophosphate prodrugs” (Metabasis Therapeutics, Inc., priority 2002, dated 2009).
# How the values were obtained:
# [1] = Single dose i.p. bolus liver levels / liver targeting in mice; settings: for reduction of peripheral exposure (liver targeting): administered intraperitoneally
# Description: At specified times post injection, mice were anesthetized and exsanguinated via cardiac puncture. The whole liver was removed, and snap-frozen in liquid nitrogen, and homogenized using a Polytron homogenizer PT 10/35 (Brinkmann Instruments, Westbury, N.Y.) in 3 volumes of 10% (v/v) perchloric acid (PCA). After a 5 min centrifugation at 2,500×g, 1 mL of supernatant was neutralized using 0.3 mL 3 M KOH/3 M KHCO3 and mixed thoroughly. Samples were then centrifuged for 5 minutes and resulting supernatants were treated with periodate in order to remove endogenous ribonucleotides which otherwise might interfere with araCTP detection. […] Resulting samples were analyzed by HPLC as described below.
# To measure bone marrow araCTP, the bone marrow samples were flushed from the marrow cavities of femurs with 1.2 ml saline into pre-weighed Eppendorf tubes. After centrifugation for 20-30 seconds (Eppendorf microfuge, 14,000 rpm) and removal of the supernatant, 12 volumes of 3% PCA (v/v) were added to the bone marrow cell pellets. Samples were then vortexed until the pellet was well dissolved and centrifuged as above for 10 min. Ninety μL of extracted supernatant was neutralized to pH 7-8 using 30 μL 1 M KOH/1 M KHCO3 and again centrifuged. Resulting supernatants were periodate-treated as above.
# Samples (50 μL) were injected onto the column in 70% 10 mM ammonium phosphate buffer and 30% 1 M ammonium phosphate buffer, both at pH 3.5 and containing 6% ethanol. […] A standard curve was prepared by adding known amounts of araCTP into PCA extracts from control liver or bone marrow prior to neutralizing, and preparing HPLC samples accordingly.
# To obtain plasma, blood was transferred to heparinized micro-collection tubes and centrifuged in an Eppendorf microfuge at 14,000 rpm for 2 minutes. Resulting plasma was collected, placed on dry ice, and subsequently stored at −20° C. On the day of analysis, proteins were precipitated by adding 1 mL acetonitrile to 100 μL of plasma. After 10 min centrifugation (Eppendorf microfuge, 14,000 rpm), the supernatant was removed and dried in a Savant SpeedVac Plus SC110A. Samples were reconstituted with 110 μL of mobile phase buffer (20 mM KH2PO4, pH 4.5), sonicated for 5 min, and centrifuged for 30 seconds. […] AraC and prodrugs were detected by absorbance at 280 nm and quantitated using standard curves obtained with spiked plasma samples processed as above.
# Results are expressed as mean±standard error of the mean. Data were analyzed by repeated measures ANOVA, followed by the Tukey HSD post-hoc test for comparisons at individual time points when appropriate. A p-value of less than 0.05 was considered statistically significant. Dotted lines in figures indicate LOQ (limit of quantitation) using the indicated HPLC method.
# (§1) In those studies, liver, plasma and bone marrow samples were obtained at necropsy to evaluate liver targeting.
# (§2) Results are expressed as mean±standard error of the mean. When appropriate, AUC was calculated from time zero to the last time-point of the study. Liver targeting indices (LTIs) were calculated by dividing the liver araCTP AUC by the AUC for plasma araC (plasma LTI) or by the AUC for bone marrow araCTP (bone marrow LTI) for each compound. For the continuous infusion studies, the steady state araCTP levels were divided by the steady state plasma araC levels.
# [2] = Liver araCTP and liver targeting with continuous i.v. infusion in rats
# From the text: A saline filled blunt PE-50 tubing catheter (Intramedic, Becton Dickinson, Sparks, Md.) was inserted into the jugular vein, exteriorized between the scapulae and connected to a swivel-tethering constant infusion system (Lomir Biomedical, Inc., Malone, N.Y. and Harvard Apparatus, Inc., South Natick, Mass.). The tubing was filled with heparinized saline and sealed, and the animals allowed to recover for one to seven days.
# After the various durations of infusion the animals were anesthetized by intra-catheter injections of the anesthetic mix described above. Blood samples were obtained via cardiac puncture using a 23-gauge needle attached to a heparin coated 3 cc syringe.
# as §1, §2
# Aqueous stability = format: physicochemical; settings: 50 μM
# Description: Diluted solutions (50 μM) were incubated at 37° C. in a Fisher Scientific dry bath incubator (catalog # 11-718-2) with samples collected every 24 hours and stored at −80° C. Plasma samples (100 μL) were quenched with 1 mL of acetonitrile. […] Samples were resuspended in 120 μL of mobile phase buffer before HPLC injection.
# Samples were analyzed on an HP1090 or HP1100 (Hewlett Packard) HPLC using a C-18 Alltech Econosphere column, 150 mm×4.6 mm (catalog # 70065), with a C-18 Alltech Econosphere guard column, 7.5 mm×4.6 mm (catalog # 96121). Samples were eluted with a methanol gradient: 0% for 5 minutes, then increasing to 10% at 10 minutes, 30% at 20 minutes, and 60% at 25 minutes. The column was allowed to equilibrate in 0% methanol for 10 minutes before the next injection. The flow rate was 1 mL/minute with a column temperature of 40° C. Prodrugs eluted around 19.5 minutes and were monitored by UV absorbance at 280 nm. For prodrugs in aqueous conditions, the same method was employed except the methanol gradient was as follows: 0% for 5 minutes, increasing to 10% at 10 minutes, and 30% at 20 minutes with prodrug eluting around 20 minutes.
# Solubility = format: physicochemical
# Description: With each of the three buffer systems, saturating solutions of Compound A and Compound B were prepared as follows. […] The resultant vials were sealed and equilibrated by tumbling at 25° C. for a minimum of 24 h. At the end of the incubation period, prodrug that was not in solution was removed from the samples by filtration through a 0.45 μm pore size nylon syringe filter. These diluted samples were assayed by the HPLC method of example E.
# human liver microsomes = test: Enzyme kinetics of prodrug activation to araCMP in human liver microsomes; settings: activation to araCMP
# [3] = Plasma stability in human plasma; format: in vitro ADME
# Description: Male- and female-pooled human plasma (Bioreclamation Inc., Hickville, N.Y., catalog # […], lot # BRH02236) containing heparin as anticoagulant, pH of all plasma aliquots was 8.3. […] Samples (100 μL) were quenched with 1 mL of acetonitrile. […] Samples were resuspended in 120 μL of mobile phase buffer before HPLC analysis. For plasma samples, 40 μL or 50 μL samples were injected onto the column described in Example E with mobile phase buffer, 20 mM potassium phosphate buffer, pH 6.2 (Fisher Scientific, catalog # P261-1, various lots). All other HPLC analysis was performed as described in Example E.
# [4] = Mouse 5-day safety pharmacology; format: in vivo; settings: mice; for histopathology of liver, kidney and small intestine: 100 mg/kg araC or 1000 mg/kg CE Compound C; for red blood cell parameters (erythrocyte numbers, hematocrit, hemoglobin): 5 days i.p.; for red blood cell parameters (erythrocyte numbers, hematocrit, hemoglobin) / Glucose: araC 30 and 100 mg/kg/day; for effect on body weight: daily i.p. 5 days, highest dose: araC 100 mg/kg/day; for Glucose: Compound C 1000 mg/kg/day
# Description: AraC was purchased from Sigma Chemical Co. (St. Louis, Mo., catalog # C1768, lot # 39H5962). Compound C and araC were dissolved in sterile physiological saline. Stock solutions were prepared daily from pre-weighed drug. All but the highest concentrations were prepared by diluting the stock solutions using additional sterile saline. Any drug not used immediately was refrigerated and used within 24 hours. All prodrugs were dosed in cytarabine molar equivalents (CE).
# Male NIH Swiss Webster mice (25 to 33 g body weight, Harlan Sprague Dawley, Indianapolis, Ind.) were injected i.p. with Compound C, araC or vehicle once a day on days 0-4, approximately 3 to 4 hours following the beginning of the vivarium light cycle. Doses for Compound C were 1000, 300, 100 and 30-mg/kg nucleoside equivalents/day (equal to 1848, 554, 185 and 55.4 mg/kg/day) whereas araC was administered at 100, 30, 10 and 3 mg/kg/day. The vehicle was saline. Body weights were recorded on days 0-4 immediately prior to compound administration and on day 5 prior to sacrifice. All mice were sacrificed on day 5 (23-25 hours following the last i.p. dose) by exsanguination under halothane anesthesia, and subsequent cervical dislocation. The blood from each animal was analyzed for blood chemistry and hematology parameters as described in Example H. Livers were excised and fixed in neutral-buffered 10% formalin, and bone marrow was flushed from the right femur using 1 ml PBS without calcium or magnesium and nucleated cell counts measured as in Example H.
# EDTA-treated blood samples were submitted to LabCorp (LabCorp, San Diego, Calif.) for hematology analysis including erythrocyte and platelet numbers, hemoglobin, and hematocrit. Serum chemistry analysis was also performed by LabCorp. Tissue specimens from mice treated with vehicle or 100 mg/kg araC or 1000 mg/kg CE Compound C were coded and shipped in formalin to Comparative Biosciences (Mountain View, Calif.) for preparation of hematoxylin/eosin-stained tissue sections and histopathology evaluation. Specimen codes for the histopathology studies were: #1-7, Compound C 1000 mg/kg/day; #33-40, araC 100 mg/kg/day; #65-72, Saline vehicle.
# Results are expressed as mean±standard error for 5-8 animals per dose group. For selected hematology parameters, data for each animal were also presented as a % of the mean of the vehicle group. Statistical analysis was performed by one-way ANOVA followed by Dunnett's post-hoc test for differences between a control group and multiple dose groups. A p-value of less than 0.05 was considered statistically significant.
# [5] = rats, 200 mg CE/kg/day continuous intravenous infusion
# [6] = Compound C 1000 mg/kg/day of nucleoside equivalents
smiles,measurement,setting,value
"Nc1ccn([C@@H]2O[C@H](CO[P@]3(=O)OCC[C@H](c4ccncc4)O3)[C@@H](O)[C@@H]2O)c(=O)n1 [Compound B, 2(1H)-Pyrimidinone, 4-amino-1-[5-O-[(2S,4R)-2-oxido-4-(4-pyridinyl)-1,3,2-dioxaphosphorinan-2-yl]-β-D-arabinofuranosyl]]",Liver araCTP Peak @ 1 hr,"[1]; Mouse, 100 mg (cytarabine equivalents)/kg single IP injection",27 nmol/g
same,LTI (Liver/plasma),"[1]; Mouse, 100 mg CE/kg single IP, liver araCTP AUC / plasma araC AUC",19.6 nmol/g/μM
same,reduction of peripheral exposure (liver targeting),[1],~20 fold
same,liver araCTP peak at 60 minutes post injection,"[1]; mice, single i.p. bolus, 100 mg/kg CE",27.00 ± 4.04 nmol/g
same,reduction of peripheral exposure (liver targeting),[2]; administered by continuous intravenous infusion,~10 fold
same,LTI @ 24 hrs (Liver/plasma),[2]; [5],>12 nmol/g/μM
same,Liver araCTP 24 hr,[2]; [5],5.9 nmol/g
same,Liver araCTP @ 4 hr,[2]; [5],6.4 nmol/g
same,Plasma Prodrug steady state,[2]; [5],25 to 35 µM
same,Plasma araC steady state,[2]; [5],<0.5 µM
same,liver araCTP compared with Compound A,"[2]; rats, continuous infusion 200 mg/kg/24 hours CE",less araCTP in the liver than Compound A
same,t90 in aqueous solution,"Aqueous stability; 100 mM Pi, pH 7.4, 37° C",4 days
same,t90 in aqueous solution,"Aqueous stability; 100 mM citrate, pH5.0, 37° C",1.7 days
same,solubility,"Solubility; 0.5 M Pi pH 8.0 buffer, 25° C",10.2 mg/mL
same,solubility,"Solubility; 0.5 M citrate pH 4.0, 25° C",94.6 mg/mL
same,solubility,"Solubility; 0.5 M citrate pH 7.0, 25° C",9.0 mg/mL
same,Vmax,"human liver microsomes; 2 mg/mL human liver microsomes lot RQX, 1 mM NADPH, pH 7.4, 37° C, 5 min",0.13 ± 0.02 nmol/min/mg
same,Km,human liver microsomes; human liver microsomes lot RQX,3.13 ± 0.51 mM
"Nc1ccn([C@@H]2O[C@H](COP3(=O)OCCC(c4ccncc4)O3)[C@@H](O)[C@@H]2O)c(=O)n1 (relative stereo) [Compound C, 2(1H)-Pyrimidinone, 4-amino-1-[5-O-cis-[2-oxido-4-(4-pyridinyl)-1,3,2-dioxaphosphorinan-2-yl]-β-D-arabinofuranosyl]]",reduction of peripheral exposure (liver targeting),[1],~20 fold
same,reduction of peripheral exposure (liver targeting),"[2]; rat, in vivo, iv",~10 fold
same,half-lives in human plasma,[3],> 1 days
same,"histopathology of liver, kidney and small intestine",[4],no toxicologically relevant histopathologic changes
same,hepatotoxicity,[4]; 5-day repeated dose,No hepatotoxicity was observed
same,safety relative to araC in terms of hematologic endpoints,[4]; 5-day repeated dose,≥ 30 fold
same,"red blood cell parameters (erythrocyte numbers, hematocrit, hemoglobin)",[4],"similarly affected these parameters, but at ten-fold higher doses"
same,"dose required to reduce nucleated bone marrow cells, relative to araC",[4]; [6],30 fold
same,"PMN, mononuclear cell, or platelet numbers",[4]; any dose (30-1000 mg/kg/day CE) i.p. for 5 days,did not affect
same,effect on body weight,[4]; [6],no significant effect
same,Glucose,[4],lowered
"Nc1ccn([C@@H]2O[C@H](CO)[C@@H](O)[C@@H]2O)c(=O)n1 [AraC, 1-(β-D-Arabinofuranosyl)cytosine]",AUC(0-t),"[1]; male, Swiss Webster, mouse, plasma, ip, 100 mg (cytarabine equivalents)/kg",121 µM·h
same,Plasma araC steady state,"[2]; rats, AraC at 2000 mg/kg/day continuous infusion",~300 µM
same,"histopathology of liver, kidney and small intestine",[4],no toxicologically relevant histopathologic changes
same,hepatotoxicity,[4]; 5-day repeated dose,No hepatotoxicity was observed
same,"number of nucleated bone marrow cells, circulating PMNs, mononuclear cells, and platelets",[4]; 30 and 100 mg/kg/day i.p. for 5 days,significantly decreased
same,"red blood cell parameters (erythrocyte numbers, hematocrit, hemoglobin)",[4],"lowered erythrocyte numbers, hematocrit, and hemoglobin significantly"
same,Creatinine,[4]; araC 100 mg/kg/day,lowered
same,"bone-marrow cellularity, % of that in vehicle-treated animals",[4]; araC 100 mg/kg/day i.p. for 5 days,11%
same,effect on body weight,[4]; [6],progressive and statistically significant drop in body weight
same,Alkaline phosphatase,[4]; highest dose of araC (100 mg/kg/day),significantly decreased
same,Glucose,[4],lowered
